Converted amounts (≈) assume the structure as drawn.
Columns and labels:
Staphylococcus aureus = assay: Antibacterial activity against […] Staphylococcus aureus ATCC 29213 assessed as reduction in bacterial growth measured after 48 hrs by CLSI based broth microdilution method; type: functional
[1] = Selectivity index, ratio of MIC of […] Staphylococcus aureus ATCC 29213 to MIC of Clostridium difficile ATCC 43255; type: functional
Clostridioides difficile = assay: Antibacterial activity against Clostridium difficile ATCC 43255 assessed as reduction in bacterial growth measured after 48 hrs by CLSI based broth microdilution method; type: functional
HeLa [2] = assay: Cytotoxicity against human HeLa cells assessed as reduction in cell viability incubated for 16 hrs by XTT assay; type: cell-based
[3] = Drug excretion in CD1 mouse feces at 20 mg/kg, po measured upto 8 hrs by LC-MS/MS analysis; type: ADME, organism-based; settings: in vivo
HeLa [4] = assay: Cytotoxicity against human HeLa cells assessed as reduction in cell viability at 128 ug/ml incubated for 16 hrs by XTT assay; type: cell-based; settings: dose 128 µg/ml
[5] = Plasma concentration in CD1 mouse at 20 mg/kg, po measured upto 8 hrs by LC-MS/MS analysis; type: ADME, organism-based; settings: in vivo, BLD = below limit of detection
[6] = Ratio of drug excretion in CD-1 mouse feces to MIC for antibacterial activity against Clostridium difficile ATCC 43255; type: toxicity; settings: in vivo
HeLa [7] = assay: Cytotoxicity against human HeLa cells assessed as reduction in cell viability at 256 ug/ml incubated for 16 hrs by XTT assay; type: cell-based; settings: dose 256 µg/ml
HeLa [8] = assay: Cytotoxicity against human HeLa cells assessed as reduction in cell viability at 64 ug/ml incubated for 16 hrs by XTT assay; type: cell-based; settings: dose 64 µg/ml

| Compound | MIC (Staphylococcus aureus) [µg/mL] | Ratio [1] | MIC (Clostridioides difficile) [µg/mL] | also measured |
| --- | --- | --- | --- | --- |
| O=C(O)c1ccc2oc(NC(=O)c3cc(-c4cccc(OC(F)(F)F)c4)ccn3)nc2c1 | 16 (≈ 36.1 µM) | 512 | 0.03 (≈ 0.0677 µM) | IC50 (HeLa [2]): 124 µg/mL (≈ 279 µM) |
| O=C(Nc1ncco1)c1cc(-c2ccc(C(F)(F)F)cc2)ccn1 | 128 (≈ 384 µM) | 512 | 0.25 (≈ 0.75 µM) | – |
| O=C(Nc1ncco1)c1cc(-c2cc(F)cc(F)c2)ccn1 | 64 (≈ 212 µM) | 64 | 1 (≈ 3.32 µM) | IC50 (HeLa [2]): 40.1 µg/mL (≈ 133 µM) |
| O=C(O)c1ccc2oc(NC(=O)c3cc(Oc4ccc(F)c(F)c4)ccn3)nc2c1 | – | 128 | – | – |
| O=C(Nc1ncco1)c1cc(-c2ccc(Cl)cc2)ccn1 | 128 (≈ 427 µM) | 32 | 4 (≈ 13.3 µM) | – |
| O=C([O-])c1ccc2oc(NC(=O)c3cc(Oc4ccc(F)c(F)c4)ccn3)nc2c1.[Na+] | 64 | – | 0.5 | Drug excretion [3]: 3.7 µg/g; Activity (HeLa [4]): Non-Toxic; Cp [5]: Bld; Ratio [6]: 7.4 |
| O=C(Nc1ncco1)c1cc(Oc2ccc(F)c(F)c2)ccn1 | 64 (≈ 202 µM) | 64 | 1 (≈ 3.15 µM) | – |
| O=C(Nc1ncco1)c1cc(-c2ccc(Cl)c(F)c2)ccn1 | 128 (≈ 403 µM) | 512 | 0.25 (≈ 0.787 µM) | Activity (HeLa [7]): Non-Toxic |
| O=C(Nc1ncco1)c1cc(Oc2ccc(SC(F)(F)F)cc2)ccn1 | ≥ 256 | > 256 | 1 (≈ 2.62 µM) | – |
| O=C(Nc1ncco1)c1cc(Oc2ccc(OC(F)(F)F)cc2)ccn1 | 128 (≈ 350 µM) | 128 | 1 (≈ 2.74 µM) | – |
| O=C(Nc1ncco1)c1cc(-c2ccc(F)c(F)c2)ccn1 | 128 (≈ 425 µM) | 256 | 0.5 (≈ 1.66 µM) | Activity (HeLa [8]): Non-Toxic |
| O=C(Nc1ncco1)c1cc(-c2ccc(F)cc2)ccn1 | 64 (≈ 226 µM) | 64 | 1 (≈ 3.53 µM) | – |
| O=C(O)c1ccc2oc(NC(=O)c3cc(-c4ccc(OC(F)(F)F)cc4)ccn3)nc2c1 | 8 (≈ 18 µM) | 256 | 0.03 (≈ 0.0677 µM) | IC50 (HeLa [2]): 79.9 µg/mL (≈ 180 µM) |
| O=C(Nc1ncco1)c1cc(-c2cccc(C(F)(F)F)c2)ccn1 | 64 (≈ 192 µM) | 128 | 0.5 (≈ 1.5 µM) | – |
| O=C(Nc1ncco1)c1cc(-c2cccc(OC(F)(F)F)c2)ccn1 | ≥ 256 | > 512 | 0.5 (≈ 1.43 µM) | – |
